Here are results for 2 substances from patent publication US8993721B2, “Peptides for targeting apoptotic cells and uses thereof” (Kyungpook National University Industry-Academic Cooperation …, priority 2008, dated 2015).

“Also recorded” adds a separate entry of the source. Where no end group is shown, it is not given here.

For data set [1], the system named is apoptotic cells in A549 tumor tissue xenotransplanted under the skin of nude mouse. Description: Histological analysis of tumor targeting (Example 2). Format: in vivo. Conditions: fluorescein-labeled peptide, tail vein; for binding to cells stained by TUNEL (apoptotic cells) in tumor tissue: merge of peptide fluorescence and TUNEL. How it is done:
All animal experiments were performed in accordance with the guideline of the Institutional Animal Care and Use Committee. For tumor xenotransplantation, human lung cancer cells (A549, 1×10^7 cells) suspended in RMPI-1640 medium was subcutaneously injected at the right upper or lower limb of a 6-week-old male BALB/c nude mouse (Hyochang Science). Then, 3 weeks were given for the tumor to grow to a size of 0.5 to 1 cm. The A549 cell line used in the experiment was cultured in RMPI-1640 medium containing 10% fetal bovine serum (FBS) in which antibiotics (penicillin and streptomycin) were included. Subculturing was performed every 3 or 4 days.
The peptides used in the present invention were fluorescein-attached form at the N-terminal. They were synthesized according to the standard Fmoc technique and then isolated through HPLC. The peptide synthesis was performed by an expertise company (Peptron).
The peptide of the present invention (ApoPep-1) or a control peptide (amino acid sequence: NSSSVDK), labeled with fluorescein, was injected into the tail vein of a mouse under isoflurane anesthesia, to a final concentration of 50 μM, and 2 hours was given for circulation.
For histological analysis, the mouse was anesthetized and the abdomen was cut open. After sequentially perfusing phosphate-buffered saline (PBS) and 4% paraformaldehyde through the heart, tumor tissues and organs were removed. Each tissue was cryosected and the peptide of the present invention was observed under a fluorescence microscope (Zeiss). Apoptosis in the tumor tissue was confirmed by TUNEL ([…] terminal deoxynucleotidyl transferase-mediated dUTP nick-end labeling) assay according to the instructions of the manufacturer (Chemicon). Fibrinogen staining was performed by immunohistochemistry using anti-fibrinogen antibody (Abcam) and secondary antibody labeled with Alexa 568, a red fluorescent reagent.

The subject of data set [2] is etoposide-treated apoptotic cells (A549, H460, HeLa, L132, RAW). Briefly: Microscopic observation of binding of the peptide to apoptotic cells (Example 3-1). Format: cell-based. How it is done: Cells were cultured in chamber slide (Nalgene Nunc) and treated with 50 μM etoposide (Sigma) for a given period of time (A549 and HeLa cells: for 15 hours, H460 cells: 24 hours, L132 cells: 3 hours, RAW cells: 6 hours) to induce apoptosis. The cells were cultured in RMPI-1640 medium (A549 and H460 cells) or DMEM (HeLa, L132 and RAW cells) containing antibiotics (penicillin and streptomycin) and 10% FBS. All the cells were subcultured every 3 or 4 days. The apoptosis-induced apoptotic cells were washed with PBS and blocked with 1% BSA at 37° C. for 30 minutes. Then, the cells were reacted with 10 μM of the peptide labeled with fluorescein, at 4° C. for 1 hour. After washing, the cells were reacted with an annexin V reaction buffer containing Alexa594-labeled annexin V (Molecular Probes), at room temperature for 15 minutes. The cells were washed with PBS and then fixed with 4% paraformaldehyde for 5 minutes. Thereafter, after counterstaining using the nuclear stain 4′,6-diamidino-2-phenylindole (DAPI), followed by treatment with a mounting solution (Molecular Probes), images of the cells were obtained under a fluorescence microscope (Zeiss).

The test system of data set [3] is etoposide-treated apoptotic A549 cells. Briefly: FACS analysis of binding to apoptotic cells (Example 3-3). Type of data set: cell-based, human. How it is done:
As another way of confirming the binding of the peptide of the present invention to apoptotic cells, apoptotic cells were treated with the peptide of the present invention, labeled with fluorescein, and the binding was confirmed through FACS analysis. […] The apoptotic cells or normal cells were reacted with ApoPep-1 (5 μM), ApoPep-2 (10 μM) or a control peptide at the same concentrations, labeled with fluorescein, at 4° C. for 1 hour. Further, the cells were reacted with fluorescein-labeled annexin V at room temperature for 15 minutes. After staining the cells with propodium iodide (PI) simultaneously, followed by washing with PBS, FACS analysis was performed using a FACS instrument (Becton Dickinson).

Data set [4] concerns A549 tumor xenotransplanted in nude mice. Briefly: In vivo fluorescence imaging of targeting of apoptotic cells in tumor (Example 4-1). The arrangement: species or system mouse. How it is done:
Nude mice in which tumor was xenotransplanted using A549 cells were prepared as in Example <2-1>. The mice were grouped into a doxorubicin (Sigma) treated group (+Dox) and untreated group (−Dox). The treated group was treated with doxorubicin (10 mg/kg) 3 times, with an interval of 48 hours, a week prior to injection of the peptide. At the tail vein of each mouse, the peptide of the present invention or a control peptide, labeled with fluorescein, was injected at a final concentration of 50 μM, under isoflurane anesthesia. Following the injection, in vivo fluorescence images were obtained every hour, from 1 hour to 6 hours after the injection, using an Optix exPlore instrument (GE Healthcare). The images were standardized using the software provided with the instrument.
Further, when the tumor grew considerably (1 cm or larger in diameter), the peptide of the present invention was injected at the same concentration as above, without doxorubicin treatment, and in vivo fluorescence images were obtained at every given time using an IVIS fluorescence imaging system (Chemipro).

For data set [5], the system named is trail-treated apoptotic MDA-MB231 cells. Description: Microscopic observation of binding of the peptide to apoptotic cells, MDA-MB231 (Example 9-1). Format: cell-based. How it is done: Cells were cultured in chamber slide (Nunc) and treated with 50 μM etoposide (Sigma) for 16 hours (A549 cells) or 50 ng/ml trail (R&D Systems) for 16 hours (MDA-MB231 cells) to induce apoptosis. The cells were cultured in RMPI-1640 medium (A549 cells) or DMEM-High (MDA-MB231 cells) containing antibiotics (penicillin and streptomycin) and 10% FBS. All the cells were sub-cultured every 3 or 4 days. The apoptosis-induced apoptotic cells were washed with PBS and blocked with 1% BSA at 37° C. for 30 minutes. Then, the cells were reacted with 10 μM of the peptide labeled with fluorescein, at 4° C. for 1 hour. After washing, the cells were reacted with an annexin V reaction buffer containing Alexa594-labeled annexin V (Invitrogen) at room temperature for 15 minutes. The cells were washed with PBS and then fixed with 4% paraformaldehyde for 5 minutes. After treatment with a mounting solution containing the DAPI nuclear stain, images of the cells were obtained under a fluorescence microscope.

Where [6] appears, read: etoposide 15 hours, peptide 5 μM, 4° C. 1 hour.

Take “CQRPPR (also: fluorescein or Cy7.5 label) [ApoPep-1, peptide CQRPPR screened for macrophages; used fluorescein- or Cy7.5-labeled]”: the “peptide fluorescence observed in the tumor tissue” value in data set [1] (50 μM final, 2 hours circulation, cryosections) is “observed in the tumor tissue”. Also, in data set [1] (50 μM, 2 hours), the “binding to cells not stained by TUNEL (coagulation necrotic site, fibrinogen staining)” value is given as “also binds to the cells not stained by TUNEL” and the “binding to cells stained by TUNEL (apoptotic cells) in tumor tissue” value is recorded as “binds to the cells stained by TUNEL”. For the same substance, the “labeling of normal cells not treated with etoposide” value in data set [2] (10 μM fluorescein-labeled peptide 4° C. 1 hour, Alexa594-annexin V) is recorded as “no labeling was observed”. Besides, the “labeling of etoposide-treated apoptotic cells (fluorescence microscopy)” value in data set [2] (50 μM etoposide, 10 μM fluorescein-labeled peptide 4° C. 1 hour, Alexa594-annexin V room temperature 15 minutes) is reported as “labeling was observed”. Also, in data set [2] (etoposide-treated apoptotic cells), the “location of peptide binding relative to annexin V binding (merge)” value is “at the same locations”. Further, the “binding to normal cells (FACS)” value in data set [3] (A549 cells without etoposide, 4° C. 1 hour) is given as “almost nonexistent”. Moreover, in data set [3] (setting [6]), the “cells at the early stage of apoptosis bound to the peptide” value is on record as 90.3% and the “cells at the later stage of apoptosis bound to the peptide” value is listed as 7.2%. Moreover, the “time until which the tumor fluorescence signal was detected” value in data set [4] (doxorubicin treated group, fluorescein-labeled peptide 50 μM) amounted to 5 h. Also, the “time at which the fluorescence signal from the tumor tissue was most strongly detected” value in data set [4] (doxorubicin treated group, fluorescein-labeled peptide 50 μM, tail vein) came out at 2 h. In addition, in data set [4] (−Dox, fluorescein-labeled peptide 50 μM), the “fluorescence signal from the tumor, doxorubicin untreated group” value is given as “weakly detected or almost nonexistent”.

For “CSVAPR (also: fluorescein or Cy7.5 label) [ApoPep-2, peptide CSVAPR screened for endothelial cells; used fluorescein- or Cy7.5-labeled]”, the “binding to cells stained by TUNEL (apoptotic cells) in tumor tissue” value in data set [1] (50 μM, 2 hours) is recorded as “binds to the apoptotic cells in the tumor tissue”. Further, the “binding to apoptotic cells versus normal cells (FACS)” value in data set [3] (etoposide 20 hours, peptide 10 μM at 4° C. or 37° C. for 1 hour) is listed as “bound better to the apoptotic cells than to the normal cells”. For the same substance, the “time from which fluorescence from the tumor was detected” value in data set [4] (large tumor (1 cm or larger in diameter), no doxorubicin, IVIS) turned out to be 2 h. Also, the “fluorescence signal from the tumor at 5 hours” value in data set [4] (large tumor (1 cm or larger), no doxorubicin) was “strong fluorescence signal”. Besides, the “labeling of trail-treated apoptotic MDA-MB231 cells” value in data set [5] (50 ng/ml trail 16 hours, 10 μM fluorescein-labeled peptide 4° C. 1 hour, Alexa594-annexin V) is given as “strongly bound to the apoptotic cells; also recorded: labeling was observed”. In addition, the “labeling of MDA-MB231 cells not treated with trail” value in data set [5] (10 μM peptide 4° C. 1 hour, Alexa594-annexin V) is reported as “hardly bound to the untreated cells; also recorded: no labeling was observed”. In addition, the “location of peptide binding relative to annexin V binding (merge), MDA-MB231” value in data set [5] (trail-treated apoptotic cells) is “at the same locations”.
